From patent publication US7365084B2, “Cycloalkyl-substituted amino acid derivatives, processes for their preparation and their use as pharmaceuticals” (SanoFi-Aventis Deutschland GmbH, priority 2003, dated 2008)

What follows are compounds tested against T1, human PPARalpha receptor (GR-GAL4-humanPPARalpha-LBD fusion protein) (Homo sapiens, UniProt Q07869) (assay: Cellular PPARalpha assay (stably transfected HEK luciferase reporter cell line)). Conditions: 24 h incubation.
T1 construct: amino acids S167-Y468; expressed in transfected cells; host or cells: HEK (human embryo kidney) cells, stably transfected with pcDNA3 carrying the fusion construct
T1 sequence (Q07869 167-468): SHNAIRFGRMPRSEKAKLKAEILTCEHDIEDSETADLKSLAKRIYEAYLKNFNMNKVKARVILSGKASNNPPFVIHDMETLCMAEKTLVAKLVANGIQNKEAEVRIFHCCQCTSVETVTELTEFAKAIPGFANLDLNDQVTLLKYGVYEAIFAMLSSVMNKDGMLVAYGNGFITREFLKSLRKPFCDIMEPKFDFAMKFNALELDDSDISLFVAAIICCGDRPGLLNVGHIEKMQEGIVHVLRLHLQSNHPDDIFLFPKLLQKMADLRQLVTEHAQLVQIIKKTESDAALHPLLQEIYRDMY
Type: cell-based
Procedure: (A) Determination of EC50 Values of PPAR Agonists in the Cellular PPARalpha Assay
The potency of substances which bind to human PPAR[…] and activate in an agonistic manner is analyzed using a stably transfected HEK cell line (HEK=human embryo kidney) which is referred to here as PPARalpha reporter cell line. It contains two genetic elements, a luciferase reporter element (pΔM-GAL4-Luc-Zeo) and a PPARalpha fusion protein (GR-GAL4-humanPPARα-LBD) which mediates expression of the luciferase reporter element depending on a PPARalpha ligand. The stably and constitutively expressed fusion protein GR-GAL4-humanPPARalpha-LBD binds in the cell nucleus of the PPARalpha reporter cell line via the GAL4 protein portion to the GAL4 DNA binding motifs 5′-upstream of the luciferase reporter element which is integrated in the genome of the cell line. There is only little expression of the luciferase reporter gene without addition of a PPARalpha ligand if fatty acid-depleted fetal calf serum (cs-FCS) is used in the assay. PPARα ligands bind and activate the PPARα fusion protein and thereby bring about expression of the luciferase reporter gene. The luciferase which is formed can be detected by means of chemi-luminescence via an appropriate substrate.
The PPARalpha reporter cell line was prepared in 2 stages. Firstly, the luciferase reporter element was constructed and stably transfected into HEK cells. For this purpose, five binding sites of the yeast transcription factor GAL4 (each 5′-CGGAGTACTGTCCTCCGAG-3′) (SEQ ID NO:1) were cloned in 5′-upstream of a 68 bp-long minimal MMTV promoter (Genbank Accession # V01175). The minimal MMTV promoter section contains a CCAAT box and a TATA element in order to enable efficient transcription by RNA polymerase II. The cloning and sequencing of the GAL4-MMTV construct took place in analogy to the description of Sambrook J. et. al. (Molecular cloning, Cold Spring Harbor Laboratory Press, 1989). Then the complete Photinus pyralis gene (Genbank Accession # M15077) was cloned in 3′-downstream of the GAL4-MMTV element. After sequencing, the luceriferase reporter element consisting of five GAL4 binding sites, MMTV promoter and luciferase gene was recloned into a plasmid which confers zeocin resistance in order to obtain the plasmid pΔM-GAL4-Luc-Zeo. This vector was transfected into HEK cells in accordance with the statements in Ausubel, F. M. et al. (Current protocols in molecular biology, Vol. 1-3, John Wiley & Sons, Inc., 1995). […] In a second step, the PPARalpha fusion protein (GR-GAL4-humanPPARalpha-LBD) was introduced into the stable cell clone described. For this purpose, initially the cDNA coding for the N-terminal 76 amino acids of the glucocorticoid receptor (Genbank Accession # P04150) was linked to the cDNA section coding for amino acids 1-147 of the yeast transcription factor GAL4 (Genbank Accession # P04386). The cDNA of the ligand-binding domain of the human PPARalpha receptor (amino acids S167-Y468; Genbank Accession # S74349) was cloned in at the 3′-end of this GR-GAL4 construct. The fusion construct prepared in this way (GR-GAL4-humanPPARalpha-LBD) was recloned into the plasmid pcDNA3 (from Invitrogen) in order to enable constitutive expression therein by the cytomegalovirus promoter. This plasmid was linearized with a restriction endonuclease and stably transfected into the previously described cell clone containing the luciferase reporter element. The finished PPARalpha reporter cell line which contains a luciferase reporter element and constitutively expresses the PPARalpha fusion protein (GR-GAL4-human PPARalpha-LBD) was isolated by selection with zeocin (0.5 mg/ml) and G418 (0.5 mg/ml).
The activity of PPARalpha agonists is determined in a 3-day assay which is described below: […]

| EC50 [nM] | SMILES |
| --- | --- |
| 32 | CC(C)c1oc(-c2ccc(C(F)(F)F)cc2)nc1COCC1CCCC(C(=O)N[C@H](C(=O)O)C(C)C)C1 (some centres unmarked) [Example 43] |
| 15 | Cc1oc(-c2cccc(C(F)(F)F)c2)nc1COC1CCCC(C(=O)N[C@H](C(=O)O)C(C)C)C1 (stereo partly drawn) [Example 11, (S)-3-Methyl-2-({(1R,3S)/(1S,3R)-3-[5-methyl-2-(3-trifluoromethylphenyl)-oxazol-4-ylmethoxy]cyclohexanecarbonyl}amino)butyric acid] |
| 4.5 | Cc1oc(-c2cccc(C(F)(F)F)c2)nc1COCC1CCCC(C(=O)N[C@H](C(=O)O)C(C)C)C1 (some centres unmarked) [Example 44] |
| 99 | Cc1ccc(-c2nc(COC3CCCC(C(=O)N[C@@H](C)C(=O)O)C3)c(C)o2)cc1 (stereo partly drawn) [Example 3, (S)-2-{[(1R,3S)/(1S,3R)-3-(5-Methyl-2-p-tolyloxazol-4-ylmethoxy)cyclohexanecarbonyl]amino}propionic acid] |
| 7.2 | Cc1ccc(-c2nc(COC3CCCC(C(=O)NC4(C(=O)O)CCCC4)C3)c(C)o2)cc1 (racemic) [Example 25, 1-{[(1R,3S)/(1S,3R)-3-(5-Methyl-2-p-tolyloxazol-4-ylmethoxy)cyclohexanecarbonyl]amino}cyclopentanecarboxylic acid] |
| 1.2 | CCc1oc(-c2ccc(C(F)(F)F)cc2)nc1COCC1CCCC(C(=O)N[C@H](C(=O)O)C(C)C)C1 (some centres unmarked) [Example 50] |
| 5 | CCc1oc(-c2ccc(C)cc2)nc1CO[C@H]1CCC[C@@H](C(=O)N[C@H](C(=O)O)C(C)C)C1 [Example 21a, (S)-3-methyl-2-{[(1R,3S)-3-(5-ethyl-2-p-tolyloxazol-4-ylmethoxy)cyclohexanecarbonyl]amino}butyric acid] |
| 29 | Cc1ccc(-c2nc(COC3CCCC(C(=O)NC(C)(C)C(=O)O)C3)c(C)o2)cc1 (racemic) [Example 5, 2-Methyl-2-{[(1R,3S)/(1S, 3R)-3-(5-methyl-2-p-tolyloxazol-4-ylmethoxy)-cyclohexanecarbonyl]amino}propionic acid] |
